Laboratory results taken from PubChem BioAssay AID248 (DTP/NCI, 2004).
Inconclusive results and toxic doses are left out.

Test system: L1210 leukemia ip in BDF1 mice, survival T/C
Assay: NCI In Vivo Anticancer Drug Screen. Data for tumor model L1210 Leukemia (intraperitoneal) in B6D2F1 (BDF1) mice
Conditions: endpoint: mean survival time, higher = longer survival
Procedure, shortened: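 Mice bearing the transplanted tumor received compound or vehicle. Survival of the treated group was divided by that of the vehicle-treated control group to give the ratio.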

[1] = dose: 100.0 mg/kg/injection, schedule: Q04DX002 (ip), vehicle: Klucel (hydroxypropylcellulose) (HPC)
[2] = dose: 100.0 mg/kg/injection, schedule: Q01DX009 (ip), vehicle: saline with Tween-80
[3] = dose: 200.0 mg/kg/injection, schedule: Q01DX009 (ip), vehicle: saline with Tween-80
[4] = dose: 100.0 mg/kg/injection, schedule: Q04DX003 (ip), vehicle: saline with Tween-80
[5] = dose: 200.0 mg/kg/injection, schedule: Q04DX003 (ip), vehicle: saline with Tween-80
[6] = dose: 400.0 mg/kg/injection, schedule: Q01DX009 (ip), vehicle: saline with Tween-80
[7] = dose: 400.0 mg/kg/injection, schedule: Q04DX003 (ip), vehicle: saline with Tween-80
[8] = dose: 100.0 mg/kg/injection, schedule: Q04DX003 (ip), vehicle: Klucel (hydroxypropylcellulose) (HPC)
[9] = dose: 200.0 mg/kg/injection, schedule: Q04DX003 (ip), vehicle: Klucel (hydroxypropylcellulose) (HPC)
[10] = dose: 400.0 mg/kg/injection, schedule: Q04DX003 (ip), vehicle: Klucel (hydroxypropylcellulose) (HPC)
[11] = dose: 100.0 mg/kg/injection, schedule: Q01DX009 (ip), vehicle: saline
[12] = dose: 200.0 mg/kg/injection, schedule: Q01DX009 (ip), vehicle: saline

Cc1ccc(CN=C(N)CSS(=O)(=O)O)cc1C
T/C [1]: 97 % of control
T/C (dose: 200.0 mg/kg/injection, schedule: Q04DX002 (ip), vehicle: Klucel (hydroxypropylcellulose) (HPC)): 101 % of control

CCC1CN2CCc3cc(OC)c(OC)cc3C2CC1O (stereo not given)
T/C [2]: 97 % of control
T/C [3]: 110 % of control

CC1=C(O)C(=O)C(C2=C(O)C(=O)C(C)=C(O)C2=O)=C(O)C1=O
T/C (dose: 0.1 mg/kg/injection, schedule: Q01DX Z (ip), vehicle: carboxymethylcellulose (CMC)): 111 % of control
T/C (dose: 0.2 mg/kg/injection, schedule: Q01DX Z (ip), vehicle: carboxymethylcellulose (CMC)): 105 % of control
T/C (dose: 0.5 mg/kg/injection, schedule: Q01DX Z (ip), vehicle: carboxymethylcellulose (CMC)): 94 % of control
T/C (dose: 1.0 mg/kg/injection, schedule: Q01DX Z (ip), vehicle: carboxymethylcellulose (CMC)): 94 % of control
T/C (dose: 5.0 mg/kg/injection, schedule: Q01DX001 (ip), vehicle: carboxymethylcellulose (CMC)): 103 % of control
T/C (dose: 10.0 mg/kg/injection, schedule: Q01DX001 (ip), vehicle: carboxymethylcellulose (CMC)): 102 % of control
T/C (dose: 12.0 micrograms/kg/injection, schedule: Q01DX Z (ip), vehicle: carboxymethylcellulose (CMC)): 101 % of control
T/C (dose: 25.0 micrograms/kg/injection, schedule: Q01DX Z (ip), vehicle: carboxymethylcellulose (CMC)): 101 % of control
T/C (dose: 50.0 micrograms/kg/injection, schedule: Q01DX Z (ip), vehicle: carboxymethylcellulose (CMC)): 101 % of control

CS(=O)(=O)c1ccc(Br)cc1
T/C [2]: 103 % of control
T/C [4]: 90 % of control
T/C [3]: 102 % of control
T/C [5]: 98 % of control
T/C [6]: 102 % of control
T/C [7]: 96 % of control

C(#CP(c1ccccc1)c1ccccc1)c1ccccc1
T/C [8]: 93 % of control
T/C [9]: 97 % of control
T/C [10]: 95 % of control

Cc1ccc(S(=O)(=O)OCC2OC(C)(C)OC3C(COS(=O)(=O)c4ccc(C)cc4)OC(C)(C)OC23)cc1 (stereo not given)
T/C (dose: 100.0 mg/kg/injection, schedule: Q01DX001 (ip), vehicle: saline): 99 % of control
T/C (dose: 200.0 mg/kg/injection, schedule: Q01DX001 (ip), vehicle: saline): 89 % of control
T/C (dose: 400.0 mg/kg/injection, schedule: Q01DX001 (ip), vehicle: saline): 99 % of control

Cc1nnc(NS(=O)(=O)c2ccc(N=Nc3c(N)nc(N)[nH]c3=O)cc2)s1
T/C (dose: 5.0 mg/kg/injection, schedule: Q01DX001 (ip), vehicle: saline): 105 % of control
T/C (dose: 10.0 mg/kg/injection, schedule: Q01DX001 (ip), vehicle: saline): 102 % of control
T/C (dose: 20.0 mg/kg/injection, schedule: Q01DX001 (ip), vehicle: saline): 98 % of control
T/C (dose: 40.0 mg/kg/injection, schedule: Q01DX001 (ip), vehicle: saline): 102 % of control

COC(=O)CC/C(C)=N\NC(=O)c1ccc[n+](C)c1
T/C (dose: 50.0 mg/kg/injection, schedule: Q01DX009 (ip), vehicle: saline): 100 % of control
T/C [11]: 96 % of control
T/C [12]: 93 % of control

C=C1CCOC1=O
T/C (dose: 100.0 mg/kg/injection, schedule: Q04DX002 (ip), vehicle: saline): 104 % of control
T/C (dose: 200.0 mg/kg/injection, schedule: Q04DX002 (ip), vehicle: saline): 108 % of control
T/C (dose: 400.0 mg/kg/injection, schedule: Q04DX002 (ip), vehicle: saline): 106 % of control

O=NN(CCCl)C(=O)Nc1c[nH]c2ccccc12
T/C (dose: 118.0 mg/kg/injection, schedule: Q01DX009 (ip), vehicle: carboxymethylcellulose (CMC)): 116 % of control
T/C (dose: 177.0 mg/kg/injection, schedule: Q01DX009 (ip), vehicle: carboxymethylcellulose (CMC)): 116 % of control
T/C (dose: 266.0 mg/kg/injection, schedule: Q01DX009 (ip), vehicle: carboxymethylcellulose (CMC)): 123 % of control
T/C (dose: 400.0 mg/kg/injection, schedule: Q01DX009 (ip), vehicle: carboxymethylcellulose (CMC)): 124 % of control
T/C (dose: 600.0 mg/kg/injection, schedule: Q01DX009 (ip), vehicle: carboxymethylcellulose (CMC)): 156 % of control

CC(=O)N1Cc2ccc(C=O)n2Cc2cc3c(cc21)OCO3
T/C (dose: 25.0 mg/kg/injection, schedule: Q04DX002 (ip), vehicle: Klucel (hydroxypropylcellulose) (HPC)): 96 % of control
T/C (dose: 50.0 mg/kg/injection, schedule: Q04DX002 (ip), vehicle: Klucel (hydroxypropylcellulose) (HPC)): 104 % of control
T/C [1]: 110 % of control

Nc1cnc(N)nc1
T/C (dose: 75.0 mg/kg/injection, schedule: Q01DX Z (ip), vehicle: saline): 103 % of control
T/C (dose: 150.0 mg/kg/injection, schedule: Q01DX Z (ip), vehicle: saline): 111 % of control

Cc1ccc2c(c1)NP(=S)(c1ccccc1)N2 (stereo not given)
T/C [4]: 103 % of control
T/C [5]: 103 % of control
T/C [7]: 100 % of control

S=C(Nc1ccc(Cl)c(Cl)c1)SCc1ccc2c(c1)OCO2
T/C (dose: 37.5 mg/kg/injection, schedule: Q01DX009 (ip), vehicle: saline): 120 % of control
T/C (dose: 75.0 mg/kg/injection, schedule: Q04DX003 (ip), vehicle: saline with Tween-80): 101 % of control
T/C (dose: 150.0 mg/kg/injection, schedule: Q01DX009 (ip), vehicle: saline): 102 % of control
T/C (dose: 150.0 mg/kg/injection, schedule: Q04DX003 (ip), vehicle: saline with Tween-80): 104 % of control
T/C (dose: 300.0 mg/kg/injection, schedule: Q04DX003 (ip), vehicle: saline with Tween-80): 123 % of control

CCC1=C/C(=C/c2cccc(OC)c2O)C(=O)S1
T/C (dose: 100.0 mg/kg/injection, schedule: Q01DX001 (ip), vehicle: saline with Tween-80): 97 % of control
T/C (dose: 200.0 mg/kg/injection, schedule: Q01DX001 (ip), vehicle: saline with Tween-80): 97 % of control
T/C (dose: 400.0 mg/kg/injection, schedule: Q01DX001 (ip), vehicle: saline with Tween-80): 87 % of control

Nc1cc(Cl)cc2cc(Br)cnc12
T/C [8]: 101 % of control
T/C [9]: 98 % of control
T/C [10]: 95 % of control

CC1C(N)CC2CC1C2(C)C (stereo not given)
T/C (dose: 12.5 mg/kg/injection, schedule: Q04DX002 (ip), vehicle: saline): 113 % of control
T/C (dose: 25.0 mg/kg/injection, schedule: Q04DX002 (ip), vehicle: saline): 102 % of control
T/C (dose: 50.0 mg/kg/injection, schedule: Q04DX002 (ip), vehicle: saline): 102 % of control

NC(N)=N/N=C/C(F)(F)F
T/C (dose: 15.0 mg/kg/injection, schedule: Q01DX Z (ip), vehicle: methylcellulose (MC)): 105 % of control
T/C (dose: 30.0 mg/kg/injection, schedule: Q01DX Z (ip), vehicle: methylcellulose (MC)): 102 % of control
T/C (dose: 60.0 mg/kg/injection, schedule: Q01DX Z (ip), vehicle: methylcellulose (MC)): 112 % of control
T/C (dose: 60.0 mg/kg/injection, schedule: Q01DX Z (oral), vehicle: methylcellulose (MC)): 92 % of control
T/C (dose: 120.0 mg/kg/injection, schedule: Q01DX Z (ip), vehicle: methylcellulose (MC)): 97 % of control
T/C (dose: 120.0 mg/kg/injection, schedule: Q01DX Z (oral), vehicle: methylcellulose (MC)): 93 % of control
T/C (dose: 240.0 mg/kg/injection, schedule: Q01DX Z (ip), vehicle: methylcellulose (MC)): 88 % of control
T/C (dose: 240.0 mg/kg/injection, schedule: Q01DX Z (oral), vehicle: methylcellulose (MC)): 102 % of control
T/C (dose: 420.0 mg/kg/injection, schedule: Q01DX Z (ip), vehicle: methylcellulose (MC)): 88 % of control
T/C (dose: 480.0 mg/kg/injection, schedule: Q01DX Z (oral), vehicle: methylcellulose (MC)): 95 % of control

COc1ccc2c3c1OC1C(C)(O)C(O)CC4C(C2)N(C)CCC341 (stereo not given)
T/C (dose: 75.0 mg/kg/injection, schedule: Q01DX001 (ip), vehicle: saline): 98 % of control
T/C (dose: 150.0 mg/kg/injection, schedule: Q01DX001 (ip), vehicle: saline): 104 % of control
T/C (dose: 300.0 mg/kg/injection, schedule: Q01DX001 (ip), vehicle: saline): 98 % of control

CC(NC(=O)OCc1ccccc1)C(=O)NC(CSCc1ccccc1)C(=O)O (stereo not given)
T/C [4]: 97 % of control
T/C [5]: 97 % of control
T/C [7]: 97 % of control

S=c1c2ccccc2nc2n1CCS2
T/C [3]: 92 % of control
T/C [6]: 87 % of control

CCOC(=O)c1cnc2c(OC)cccc2c1Cl
T/C [11]: 98 % of control
T/C (dose: 100.0 mg/kg/injection, schedule: Q04DX003 (ip), vehicle: saline): 102 % of control
T/C [12]: 96 % of control
T/C (dose: 200.0 mg/kg/injection, schedule: Q04DX003 (ip), vehicle: saline): 109 % of control
T/C (dose: 400.0 mg/kg/injection, schedule: Q04DX003 (ip), vehicle: saline): 98 % of control
